Assay results reported in patent publication US6468505B1, “Technique to monitor drug delivery noninvasively in vivo” (Philipp Lang, priority 1997, dated 2002).

Legend:
[1] = unencapsulated, free chelate; cited from earlier work
[2] = NMR relaxometry of GdDTPA-BMA containing liposomes in vitro (inversion recovery T1); format: physicochemical; conditions: GdDTPA-BMA in solution of solubilized liposome (0.1% C12E8), 1 mM Gd
Protocol: NMR relaxometry and magnetic resonance (MR) imaging were performed using a 2.0 Tesla small bore magnet (Bruker Omega 2.0T System, Bruker Instruments, Inc., Fremont, Calif.) equipped with actively shielded gradients (Accustar™ S-150, Bruker Instruments, Inc., Fremont, Calif.) capable of delivering field gradients up to 20 G/cm along each axis (X, Y and Z).
T1 relaxation rates of various liposome suspensions with a mean diameter of 110 nm were determined by standard inversion recovery measurment. The content of GdDTPA-BMA in liposome suspensions was estimated from NMR relaxometry. An inversion recovery NMR spectroscopy pulse sequence was performed in which a nonselective composite inversion pulse (90x-180y-90x) was applied, followed by a gradient spoiler pulse to eliminate residual coherent in-plane magnetization. After a variable delay time (TI), z-magnetization was sampled by a nonselective 90° radiofrequency pulse and the signal was recorded. The inversion recovery signal profile was obtained from at least forty such measurements in which the TI delay was incremented from 20 ms to a value that was at least 3-fold greater than the T1.
Mz(TI)/M∞=1−k exp(TI/T1) Eq. 1,
in which Mz(TI) is the signal intensity measured at a particular value of TI, M∞ is the fully relaxed signal intensity, and k has the value of 2.0 if the inversion pulse is exactly 180°. […]

## O=C([O-])CN(CCN(CC(=O)[O-])CC(=O)O)CCN(CC(=O)[O-])CC(=O)O.[Gd+3] [Gd-DTPA, gadolinium-diethylene triamine pentaacetic acid]
[1]
  biologic half-life: approximately 30 min

## CNC(=O)CN(CCN(CCN(CC(=O)[O-])CC(=O)NC)CC(=O)[O-])CC(=O)[O-].[Gd+3] [Gd-DTPA-BMA, Gadolinium-diethylene-triamine-pentaacetic-acid-bis-methylamide]
[1]
  biologic half-life: approximately 30 min
[2]
  Relaxivity=ΔR1/[Gd]: 4.07 s⁻¹ mM⁻¹
